# “And” between values parts separate entries of the source, which are not always exact repeats. Equal entries are not always repeated.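 Tested at 5 concentrations; 48 h exposure; 96-well plates; endpoints linearly interpolated, else capped at highest concentration. GI50 is the concentration that inhibits growth by half. TGI: total growth inhibition.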
# Key:
# Test in all cases: NCI-60 cell line screen, 48 h
# DLD-1 colon = system: DLD-1 colon
# KM20L2 colon = system: KM20L2 colon
# SNB-78 CNS = system: SNB-78 CNS
# M19-MEL melanoma = system: M19-MEL melanoma
# LXFL 529 NSCLC = system: LXFL 529 NSCLC
# MCF7 breast = system: MCF7 breast
# BT-549 breast = system: BT-549 breast
# PC-3 prostate = system: PC-3 prostate
# XF 498 CNS = system: XF 498 CNS
Compound,TGI (DLD-1 colon),TGI (KM20L2 colon),TGI (LXFL 529 NSCLC),GI50 (MCF7 breast),TGI (MCF7 breast),GI50 (BT-549 breast),TGI (BT-549 breast),GI50 (PC-3 prostate),TGI (PC-3 prostate),further results
CCCCCCCCCCC/C(=N/O)c1ccc(O)c2ncccc12,8.91 µM,17.6 µM,7.57 µM,–,–,–,–,–,–,TGI (SNB-78 CNS): > 100 µM; TGI (M19-MEL melanoma): 4.97 µM
Cc1ccc(C(=O)Nc2ccc(CN3CCN(C)CC3)c(C(F)(F)F)c2)cc1C#Cc1cnc(N)cc1C#N,–,–,–,0.701 µM,1.58 µM,0.654 µM,2.67 µM,0.343 µM,1.76 µM,–
C=C1C(=O)O[C@H]2[C@H]1CC/C(COC(=O)NCc1cc3ccccc3[nH]1)=C\CC[C@@]1(C)O[C@@H]21,–,–,–,1.45 µM,3.26 µM,1.56 µM,3.14 µM,1.63 µM,3.46 µM,–
O=C1c2cccc3cc([N+](=O)[O-])cc(c23)C(=O)N1CCNCCNCCNCCN1C(=O)c2cccc3cc([N+](=O)[O-])cc(c23)C1=O,0.272 µM,0.576 µM,0.496 µM,–,–,–,–,–,–,GI50 (SNB-78 CNS): 0.0474 µM; TGI (SNB-78 CNS): 0.399 µM and 0.686 µM
O=C1CCC(Cc2ccc(Cl)cc2Cl)C(=O)N1 (stereo unspecified),–,–,–,–,> 100 µM,–,> 100 µM,–,> 100 µM,–
O=C(O)C(=Cc1ccnc2ccccc12)C(=O)O,–,–,–,–,> 100 µM,–,> 100 µM,–,> 100 µM,–
O=Cc1c(-c2cc(O)ccc2O)nc2sccn12,–,–,–,14.3 µM,> 100 µM,18 µM,48.8 µM,11.9 µM,38.3 µM,–
C=C1[C@@H](C)[C@H]2[C@H](Cc3ccccc3)NC(=O)[C@]23OC(=O)/C=C/[C@H](O)CCC[C@@H](C)C/C=C/[C@H]3[C@@H]1O,> 100 µM,> 100 µM,–,–,> 100 µM,–,> 64.3 µM,–,> 100 µM,TGI (SNB-78 CNS): 15.2 µM; TGI (M19-MEL melanoma): > 100 µM; TGI (XF 498 CNS): 8.97 µM
O=C(/C=C/c1ccc(OCC(=O)N2CCN(c3ccccc3)CC2)cc1)c1ccc(Cl)cc1,> 100 µM,> 100 µM,> 100 µM,–,> 100 µM,–,> 85.6 µM,–,> 100 µM,TGI (SNB-78 CNS): 82.8 µM; TGI (M19-MEL melanoma): > 100 µM
C1CC[N-]CC1.C1CC[N-]CC1.C1CC[N-]CC1.C1CC[N-]CC1.[Cl][Rh][Cl],–,–,–,10.2 µM,> 100 µM,5.6 µM,19.3 µM,–,–,–
O=c1cccc(C#CC#C[C@H]2O[C@@H]2CO)o1,–,–,–,0.472 µM,4.28 µM,1.19 µM,3.02 µM,0.664 µM,2.01 µM,–
[N-]=[N+]=NC(c1cn(C2CC(O)C(CO)O2)c(=O)[nH]c1=O)C(Br)I (stereo unspecified),> 100 µM,> 100 µM,> 100 µM,–,–,–,–,–,–,TGI (SNB-78 CNS): > 100 µM; TGI (M19-MEL melanoma): > 100 µM
Nc1ccccc1C#C/C=C\C#Cc1ccccc1C(F)(F)F,–,–,–,1.56 µM,> 47.5 µM,0.699 µM,17.3 µM,4.41 µM,45.1 µM,–
CCCCCCCCCC(=O)CC(=O)c1ccc(O)cc1O,> 100 µM,> 100 µM,> 100 µM,–,–,–,–,–,–,–
CC1=C([Se]CC(OC(=O)CC[Se]c2ccccc2)C(=O)NCCCCCC(=O)OCc2ccccc2)C(=O)c2ccccc2C1=O (stereo unspecified),–,–,–,2.51 µM,12.7 µM,2.99 µM,12.2 µM,2.26 µM,12.4 µM,–
COc1cc2oc(=O)ccc2cc1C1OC(=O)C2OC21C (stereo unspecified),–,–,–,–,> 100 µM,–,–,–,> 100 µM,–
OCc1cn(Cc2cccc(Cl)c2)c2ccccc12,–,–,–,0.0488 µM,27.8 µM,6.75 µM,23.1 µM,15.5 µM,39.9 µM,–
OC1(C(O)(c2ccc(-c3ccccc3)cc2)c2ccc(-c3ccccc3)cc2)CCCCC1,–,–,–,–,> 100 µM,–,> 100 µM,–,> 100 µM,–
CC(C)(C)N1CCC1C(N)=O (stereo unspecified),–,–,–,> 100 µM,> 100 µM,> 100 µM,> 100 µM,> 100 µM,> 100 µM,–
CC(=O)OC[C@H]1O[C@@H](n2ccc(=O)[nH]c2=O)[C@H](OC(C)=O)[C@@H]1OC(C)=O,–,–,–,> 100 µM,> 100 µM,> 100 µM,> 100 µM,> 100 µM,> 100 µM,–
OCCCCC#Cc1ccccc1C#Cc1ccccc1,–,–,–,21 µM,48.1 µM,11.6 µM,25.9 µM,14.1 µM,27.1 µM,–
CC[C@]1(O)CC2CN(CCc3c([nH]c4ccccc34)[C@@](C(=O)OC)(c3cc4c(cc3OC)N(C)[C@H]3[C@@](O)(C(=O)OC)[C@H](OC(C)=O)[C@]5(CC)C=CCN6CC[C@]43[C@@H]65)C2)C1 (stereo partly specified),–,–,–,< 0.005 µM,6.07 µM,0.00538 µM,0.595 µM,< 0.005 µM,12.3 µM,–
O=C(O)CNc1c2ccccc2nc2ccccc12,> 100 µM,> 100 µM,> 100 µM,–,–,–,–,–,–,TGI (XF 498 CNS): > 100 µM
CC1=C(/C=C/C(C)=C\C=C\C(C)=C\C(=O)Nc2ccc3c(c2)OCO3)C(C)(C)CCC1,–,–,–,11.2 µM,> 100 µM,98.5 µM,> 100 µM,41.2 µM,> 100 µM,–
C/C(=N/S(=O)(=O)c1ccc(Cl)c(Cl)c1)OCC(C)(C)C,–,–,–,–,> 100 µM,–,> 100 µM,–,> 100 µM,–
COc1ccc(/C=C/C(=O)c2cc3c(N)c(C(=O)Nc4ccccc4Cl)sc3nc2C)cc1,–,–,–,0.25 µM,22 µM,7.24 µM,32 µM,2.92 µM,> 50 µM,–
CC(CN(CP(=O)([O-])[O-])CP(=O)([O-])[O-])N(CP(=O)([O-])[O-])CP(=O)([O-])[O-].N.N.[Pt+2] (stereo unspecified),> 100 µM,> 100 µM,> 100 µM,–,–,–,–,–,–,GI50 (DLD-1 colon): > 100 µM; GI50 (KM20L2 colon): > 100 µM; GI50 (SNB-78 CNS): > 100 µM; TGI (SNB-78 CNS): > 100 µM; GI50 (LXFL 529 NSCLC): > 100 µM
CN(C)CCCn1c2c(c3cnccc3c1=O)C(=O)c1ccccc1-2,–,–,–,0.244 µM,1.76 µM,1.2 µM,8.43 µM,0.485 µM,3.93 µM,–
N#CC(NNC(=O)c1ccccc1O)c1ccc(O)cc1 (stereo unspecified),–,> 100 µM,> 100 µM,–,–,–,–,–,–,TGI (M19-MEL melanoma): > 100 µM
CCCN(CCCCC(NC(C)=O)C(=O)NCc1ccccc1)C(=O)NCCCl (stereo unspecified),> 100 µM,> 100 µM,> 100 µM,–,–,–,–,–,–,TGI (M19-MEL melanoma): > 100 µM; TGI (XF 498 CNS): > 100 µM

# Reference: PubChem BioAssay (NCI)
